Data: publication PMC11990524, “Design and Synthesis of Novel 6-(Substituted phenyl)-[1,3]dioxolo[4′,5′:4,5]benzo[1,2-d]thiazole Compounds as Tyrosinase Inhibitors: In Vitro and In Vivo Insights” (Molecules, 2025)
Read-outs that look alike come from different tables or passages of the source.

What was measured:
mushroom tyrosinase [1] = molecular target: T1, mushroom tyrosinase (Agaricus bisporus, UniProt C7FF04); test: Mushroom tyrosinase inhibitory activity assay (L-dopa or L-tyrosine as substrate); assay type: biochemical; settings: 50 μM, read-out: Inhibition (%, Mean ± SEM) at 50 μM (converted)
Description: In the inhibition experiments, L-dopa and L-tyrosine were used as enzyme substrates.
The plate was incubated at 37 °C for 30 min, and absorbance of dopachrome formation was recorded spectrophotometrically at 475 nm using a VersaMax® Elisa (VE) microplate reader (Molecular Devices, San Jose, CA, USA) to determine tyrosinase inhibition activity. A VE microplate reader was used in all subsequent experiments to measure optical density. All experiments were carried out independently three times.
Target sequence in this assay (C7FF04 2-392): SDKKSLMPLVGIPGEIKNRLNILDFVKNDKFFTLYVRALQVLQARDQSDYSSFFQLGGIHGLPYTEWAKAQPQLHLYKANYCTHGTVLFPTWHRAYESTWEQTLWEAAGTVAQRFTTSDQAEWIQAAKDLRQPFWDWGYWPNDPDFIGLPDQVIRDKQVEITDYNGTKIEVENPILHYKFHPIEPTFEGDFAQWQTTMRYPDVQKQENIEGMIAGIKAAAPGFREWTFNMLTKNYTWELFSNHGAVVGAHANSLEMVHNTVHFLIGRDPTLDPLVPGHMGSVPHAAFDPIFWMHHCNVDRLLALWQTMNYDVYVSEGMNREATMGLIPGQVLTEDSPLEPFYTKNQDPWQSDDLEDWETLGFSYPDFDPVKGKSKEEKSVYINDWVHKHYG

[2] = molecular target: T2, B16F10 cellular tyrosinase (Mus musculus, UniProt P11344); test: Cellular tyrosinase activity assay using B16F10 cells; assay type: cell-based, murine; settings: 1, 2, and 5 μM, IBMX 200 μM plus α-MSH 1 μM, 72 h
T2 construct: endogenous in cells; host or cells: B16F10 murine cells, stimulated with α-MSH and IBMX
T2 sequence (P11344 19-533): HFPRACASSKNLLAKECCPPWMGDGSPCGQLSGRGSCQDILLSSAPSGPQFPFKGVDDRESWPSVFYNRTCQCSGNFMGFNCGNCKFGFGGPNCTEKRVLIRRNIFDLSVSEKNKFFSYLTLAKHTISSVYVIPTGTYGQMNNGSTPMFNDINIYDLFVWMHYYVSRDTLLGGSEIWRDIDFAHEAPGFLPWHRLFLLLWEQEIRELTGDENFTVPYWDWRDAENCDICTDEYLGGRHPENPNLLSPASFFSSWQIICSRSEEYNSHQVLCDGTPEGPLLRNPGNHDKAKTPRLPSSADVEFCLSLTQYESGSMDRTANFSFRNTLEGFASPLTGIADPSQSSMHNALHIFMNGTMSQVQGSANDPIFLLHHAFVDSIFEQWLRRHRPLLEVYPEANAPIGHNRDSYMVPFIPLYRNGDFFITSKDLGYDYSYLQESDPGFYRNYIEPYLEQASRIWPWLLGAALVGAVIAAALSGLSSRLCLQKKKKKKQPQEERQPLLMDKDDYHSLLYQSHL
Description: After 72 h of incubation, the B16F10 cellular tyrosinase inhibitory activity was evaluated by measuring the optical density at 475 nm.
To evaluate the effect of compounds 5 and 9 on cellular tyrosinase activity, B16F10 cells (5000 cells/well) were inoculated in a 6-well plate and cultured for 24 h under the same conditions as the cell culture. […] The plate was incubated in a 5% CO2 incubator maintained at 37 °C for 1 h. Each well was treated with stimulators (1 μM α-MSH [Alomone Labs^TM, Jerusalem, Israel] and 200 μM IBMX [Thermo Fisher, Rockford, IL, USA]) and incubated in a CO2 incubator for 72 h. The cells were rinsed twice with PBS (pH 7.4) and treated with 100 μL lysis buffer solution consisting of Triton X-100 (1%; 5 μL), phosphate buffer (50 mM; pH 6.5; 90 μL), and phenylmethanesulfonyl fluoride (2 mM; 5 μL). The lysates were placed for 30 min at −80 °C. After centrifuging at 10,000 g and 4 °C for 10 min, an aliquot (80 μL) of the supernatants was transferred to each well of a 96-well plate, and 20 μL of L-dopa solution (10 mM) was added to each well. The optical density at 475 nm was recorded every min for 10 min to determine cellular tyrosinase activity.

B16F10 cells = test: Cellular melanin content assay using B16F10 cells; assay type: cell-based, murine
Description: After 72 h of incubation, the melanin content was evaluated by measuring the optical density at 405 nm.
The plate was incubated in a CO2 incubator for 1 h. Each well was treated with stimulators (α-MSH and IBMX; 1 μM and 200 μM, respectively) and incubated in a CO2 incubator for 72 h. The incubated cells were rinsed twice with PBS (pH 7.4). 1N–NaOH solution (100 μL) was added to each well and warmed at 60 °C for 1 h. The lysates were transferred to each well of a 96-well plate. The optical density was measured at 405 nm.

B16F10 cell tyrosinase = molecular target: T3, B16F10 cell tyrosinase (Mus musculus, UniProt P11344); test: In situ cellular tyrosinase activity assay using B16F10 cells; assay type: cell-based, murine; settings: 1, 2, and 5 μM, IBMX plus α-MSH, 72 h, L-dopa 2 h
T3 construct: endogenous in cells; host or cells: B16F10 murine cells, stimulated with α-MSH and IBMX
T3 sequence (P11344 19-533): T2 sequence (P11344 19-533)
Description: After 72 h of incubation, the cells were treated with an excessive amount of L-dopa for 2 h, and then the melanin-stained cells were photographed, and the pigmented areas of the cells were determined using an ATTO CS Analyzer (ATTO, Tokyo, Japan).
B16F10 (3 × 10^3 cells/well) cells in a 24-well plate were incubated for 24 h in a 5% CO2 incubator maintained at 37 °C. […] Stimulators (α-MSH and IBMX; 1 μM and 200 μM, respectively) were exposed to cells 1 h after treatment with the test sample, and the cells were incubated for 72 h in a 5% CO2 incubator. The cells were fixed for 40 min using paraformaldehyde solution (4%) (Sigma-Aldrich, St. Louis, MO, USA), washed with PBS (pH 7.4), and permeabilized for 2 min using Triton X-100 (0.1%). After washing twice with PBS, each well was exposed to L-dopa solution (500 μL; 2 mM). After incubation for 2 h, images of the cells stained with excess melanin were obtained using a camera connected to a microscope (Motic, Hong Kong).

HaCaT cells = test: Cytotoxicity assay on HaCaT cells (EZ-Cytox); assay type: cell-based, human; settings: 1, 2, 5, 10, and 20 μM, 24 h
Description: In addition to melanocytes, keratinocytes are the primary cells present in the epidermis. […] Each compound was treated at concentrations of 0, 1, 2, 5, 10, and 20 μM for 24 h, and cell viability was measured using the EZ-Cytox solution.
The effect of compounds 5 and 9 on cell viability of HaCaT and B16F10 cells was assessed using an EZ-Cytox solution (EZ-1000®, DoGenBio, Seoul, Republic of Korea). HaCaT (5 × 10^3 cells/well) and B16F10 (1 × 10^3 cells/well) cells were seeded in a 96-well plate, respectively, and cultured for 24 h under the same conditions as the cell culture. Each well was treated with 5 and 9 at 0, 1, 2, and 5 μM for B16F10 cells and 0, 1, 2, 5, 10, and 20 μM for HaCaT cells. The plates were incubated for 72 h for B16F10 cells and 24 h for HaCaT cells under a CO2 incubator. Each well was treated with the EZ-Cytox solution (10 μL), and the plate was left for 2 h under a CO2 incubator. Well optical density was measured at 450 nm to determine cytotoxicity.

mushroom tyrosinase [3] = molecular target: T1, mushroom tyrosinase; test: Kinetic analysis of mushroom tyrosinase (Lineweaver–Burk and Dixon plots); assay type: biochemical; set-up: purchased Sigma-Aldrich; settings: substrate L-dopa
Description: Therefore, the mechanism of inhibition was investigated using mushroom tyrosinase. At various concentrations of L-dopa, the initial dopachrome production rate was investigated at four different concentrations of 5 (0, 20, 40, and 80 μM) and 9 (0, 0.5, 1.0, and 2.0 μM).
The Lineweaver–Burk plot for each compound was re-plotted by plotting the reciprocal of the initial dopachrome production rate vs. the […] to create a Dixon plot for each compound (Figure 3C,D for compounds 5 and 9, respectively). […] The absolute value of the x-coordinate of the merged point represents the inhibition constant (Ki), which indicates the potency of the inhibitor.
Kinetic analysis of mushroom tyrosinase was performed by recording the initial dopachrome formation rate in the presence of compounds 5 and 9. […] The optical density of dopachrome production in each well was recorded at 475 nm at 5 min intervals for 30 min. Compounds were tested at 80, 40, 20, and 0 μM for 5 and at 2, 1.0, 0.5, and 0 μM for 9, respectively. Potting the inverse of the substrate concentration vs. the reciprocal of the initial dopachrome production rate generated Lineweaver–Burk plots.
Target sequence in this assay (C7FF04 1-392): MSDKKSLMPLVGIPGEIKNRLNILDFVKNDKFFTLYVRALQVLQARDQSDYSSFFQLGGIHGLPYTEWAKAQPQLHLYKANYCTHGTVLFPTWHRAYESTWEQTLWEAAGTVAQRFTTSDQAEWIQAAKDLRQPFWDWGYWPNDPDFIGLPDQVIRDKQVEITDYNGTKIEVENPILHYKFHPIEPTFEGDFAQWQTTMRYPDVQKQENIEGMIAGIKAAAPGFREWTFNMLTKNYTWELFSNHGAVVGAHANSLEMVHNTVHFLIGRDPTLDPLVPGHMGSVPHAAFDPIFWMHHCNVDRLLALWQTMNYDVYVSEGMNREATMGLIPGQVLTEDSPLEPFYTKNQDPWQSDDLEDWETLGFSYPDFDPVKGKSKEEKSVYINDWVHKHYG

zebrafish embryos = test: In vivo pigmentation assay using zebrafish embryos; set-up: species or system Danio rerio; settings: kojic acid 20 mM; treated at 24 hpf, measured at 72 hpf
Description: To identify whether the synthesized compounds could exert anti-melanogenic effects in vivo, in vivo experiments were performed using zebrafish embryos. Freely obtained zebrafish embryos were transferred to a culture dish containing an E3-MB solution and incubated at 28 °C until use. For a preliminary experiment, zebrafish embryos were dechorionated using Pronase® (Sigma-Aldrich) at 20 h post fertilization (hpf), and each compound at 0.1 mM was exposed to five zebrafish embryos in E3 solution at 24 hpf. The depigmentation abilities were compared at 72 hpf to select the compounds used in the main experiments. From the preliminary experiments (n = 1), five compounds (2, 5, and 11–13) were selected for the main depigmentation experiments (n = 3). As in the preliminary experiment, the obtained zebrafish embryos were dechorionated at 20 hpf, and each selected compound (0.1 mM) was administered to six zebrafish embryos in the E3 solution at 24 hpf. The pigmentation of zebrafish larvae was photographed and measured in dorsal and lateral views at 72 hpf using an ATTO CS analyzer (ATTO, Tokyo, Japan). […] Pigmentation of zebrafish larvae was imaged using the SMZ745T microscope (Nikon, Tokyo, Japan), and the pigmented areas were measured in dorsal and lateral views at 72 hpf using an ATTO CS analyzer (ATTO, Tokyo, Japan).

Compound: Oc1ccc(-c2nc3cc4c(cc3s2)OCO4)cc1 [Compound 5, 4-([1,3]Dioxolo[4′,5′:4,5]benzo[1,2-d]thiazol-6-yl)phenol]
- inhibition at 50 µM (mushroom tyrosinase [1]; substrate L-dopa): 63.3%
- inhibition at 50 µM (mushroom tyrosinase [1]; substrate L-tyrosine): 61.4%
- cellular tyrosinase activity [2]: significantly decreased the cellular tyrosinase activity
- melanin content (B16F10 cells; 1, 2, and 5 μM, IBMX 200 μM plus α-MSH 1 μM, 72 h): significantly reduced the stimulator-induced melanin contents
- melanin production inhibition compared with kojic acid (B16F10 cells; same concentration (5 μM)): inhibited melanin production more potently than kojic acid
- number of cells strongly stained with melanin (in situ tyrosinase) (B16F10 cell tyrosinase): evidently reduced the number of cells strongly stained with melanin
- cytotoxicity (cell viability) (HaCaT cells): None of the compounds revealed significant cytotoxicity up to 20 μM
- Ki (mushroom tyrosinase [3]; Dixon plot, read-out: inhibition constant (Ki)): 46 µM
- mechanism of inhibition (mushroom tyrosinase [3]; Lineweaver–Burk plot): competitive inhibitors

Compound: O=c1cc(CO)occ1O [kojic acid]
- depigmentation effect on zebrafish larvae (zebrafish embryos): significant depigmentation effect
